Molecular target: T1, human TRPA1 (Homo sapiens, UniProt O75762)
T1 construct: expressed in transfected cells; host or cells: Human embryonic kidney-derived 293T cells, transiently transfected with the pcDNA3.1/zeo(+) human TRPA1 plasmid
Assay: Measurement of TRPA1 antagonist activity (intracellular calcium increase, FLIPR, allylisothiocyanate stimulation)
Assay type: cell-based
Conditions: 293T cells transfected with human TRPA1; allylisothiocyanate 20 μM; concentration for 50% inhibitory rate; read-out: antagonism hTRPA1
From the text: Measurement of TRPA1 Antagonist Activity
Human TRPA1 Expression Plasmid
As cDNA encoding human TRPA1 (GenBank accession No. […]), a commercially available product was purchased (manufactured by Kazusa DNA Research Institute, clone No.: pFN21AB7348, item No.: FHC07217). Using this as a template, full-length human TRPA1 gene was amplified using the primer sequences shown below, by reaction using DNA polymerase (manufactured by Stratagene, trade name: PfuUltra High-Fidelity DNA Polymerase).
A recognition site (underlined) of restriction enzyme HindIII was added to the 5′ side, and XbaI site (underlined) was added to the 3′ side, and GTT of the template sequence was changed to termination codon TAG (bold). The obtained double stranded DNA was enzyme-digested with HindIII and XbaI, and introduced into a multicloning site of expression plasmid pcDNA3.1/zeo(+) (manufactured by Invitrogen) to give a human TRPA1 expression plasmid.
Human embryonic kidney-derived 293T cells were cultured in Dulbecco's Modified Eagle Medium containing 10% fetal bovine serum, 10 unit penicillin, and 10 μg streptomycin, plated on a petri dish having a diameter of 10 cm at 3×10^6 cells, and cultured for 24 hr. A medium containing a reduced amount of serum (manufactured by Invitrogen, trade name: OPTI-MEM, 600 μL), a gene insertion reagent (manufactured by Mirus Bio, trade name: Mirus TransIT-293, 18 μL), and human TRPA1 expression plasmid (6 μg) were mixed, the total amount of the mixture was added to the cells on the petri dish to allow for gene transfer. The cells were recovered about 8 hr later, plated on a poly-D-lysine coated 384 well black/clear bottom plate at 7,500-12,000 cells/well, and cultured overnight.
Measurement of Intracellular Calcium Increase
The 384 well plate was recovered, and the medium was removed. A calcium-bonded fluorescent indicator (manufactured by Molecular Device, trade name: Calcium4 Assay Kit, 40 μL) dissolved in assay buffer (1×HBSS, 20 mM HEPES, pH 7.2) was added, and the cells were stained in a 37° C. incubator for 1 hr. The cells were taken out at room temperature and left standing for 15 min or more. A test substance (10 μL) was added by a 384 well type dispenser, and the mixture was incubated at room temperature for 10 min. Then, allylisothiocyanate (12.5 μL) at a final concentration of 20 μM was added by a fluorescence imaging plate reader (manufactured by Molecular Device, FLIPR), and changes in the relative fluorescence intensity were measured for 5 min.
Test Substance Preparation
The test substance was dissolved in dimethyl sulfoxide and serially diluted with an assay buffer containing 0.1% bovine serum albumin (1×HBSS, 20 mM HEPES, pH 7.2) to a 5-fold concentration of the evaluation concentration. Allylisothiocyanate, which is a known TRPA1 activator, was dissolved in dimethyl sulfoxide to 100 mM, and further diluted 5-fold (100 μM) of the final concentration, like the test substance.
Calculation of Antagonist Activity
Under the test substance-free conditions, the maximum variation range of the fluorescence intensity before and after allylisothiocyanate stimulation was defined to be 100% activity rate, and the variation range before and after buffer stimulation was defined as 0% activity rate. The activity rate on addition of the test substance was determined, and the numerical value obtained by subtracting the activity rate from 100 was defined to be an inhibitory rate. 1050, which is the concentration of the test substance necessary for reaching the 50% inhibitory rate, was calculated from the sigmoid approximate curve by a spreadsheet software Excel-Fit.

T1 sequence (O75762 whole entry): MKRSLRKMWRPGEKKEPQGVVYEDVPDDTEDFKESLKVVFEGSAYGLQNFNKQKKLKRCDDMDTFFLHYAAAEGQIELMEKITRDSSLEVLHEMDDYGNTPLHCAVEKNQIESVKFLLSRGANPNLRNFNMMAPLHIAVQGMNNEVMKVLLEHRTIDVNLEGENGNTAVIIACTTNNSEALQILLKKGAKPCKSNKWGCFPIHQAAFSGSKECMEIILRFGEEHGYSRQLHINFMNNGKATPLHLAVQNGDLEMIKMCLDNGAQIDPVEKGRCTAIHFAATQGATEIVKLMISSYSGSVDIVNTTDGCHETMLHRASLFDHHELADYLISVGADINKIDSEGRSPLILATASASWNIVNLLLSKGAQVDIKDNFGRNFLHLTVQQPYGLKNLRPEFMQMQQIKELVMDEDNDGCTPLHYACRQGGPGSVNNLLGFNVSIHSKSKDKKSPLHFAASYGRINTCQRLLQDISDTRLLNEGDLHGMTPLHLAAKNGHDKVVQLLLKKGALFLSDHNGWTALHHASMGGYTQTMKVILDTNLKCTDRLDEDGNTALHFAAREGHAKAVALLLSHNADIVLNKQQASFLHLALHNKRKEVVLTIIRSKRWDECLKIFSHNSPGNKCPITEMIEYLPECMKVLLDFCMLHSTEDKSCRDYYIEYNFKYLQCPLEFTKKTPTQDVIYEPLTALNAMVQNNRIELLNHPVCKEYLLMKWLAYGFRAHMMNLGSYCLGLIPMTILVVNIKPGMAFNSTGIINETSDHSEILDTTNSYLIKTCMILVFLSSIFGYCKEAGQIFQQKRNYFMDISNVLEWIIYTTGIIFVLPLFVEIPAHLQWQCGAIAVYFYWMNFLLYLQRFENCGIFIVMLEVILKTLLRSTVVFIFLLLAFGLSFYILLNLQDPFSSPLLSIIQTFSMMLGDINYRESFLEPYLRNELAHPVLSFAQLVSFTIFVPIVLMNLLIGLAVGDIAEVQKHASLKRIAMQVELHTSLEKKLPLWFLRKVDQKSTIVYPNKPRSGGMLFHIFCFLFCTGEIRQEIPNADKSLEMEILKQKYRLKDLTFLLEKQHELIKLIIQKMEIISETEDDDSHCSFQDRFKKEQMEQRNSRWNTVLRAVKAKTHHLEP

Compound	IC50
O=C(NCc1cccc(Oc2ccc(C(F)(F)F)cc2)c1)[C@@H]1C=CCN1S(=O)(=O)c1ccc(F)cc1 [Example 36, (2S)-1-(4-fluorophenyl)sulfonyl-N-({3-[4-(trifluoromethyl)phenoxy]phenyl}methyl)-2,5-dihydropyrrole-2-carboxamide]	28 nM
O=C(NCc1cccc(Oc2ccc(C(F)(F)F)cc2)c1)[C@@H]1CCN1S(=O)(=O)c1ccc(F)cc1 [Example 37, (2S)-1-(4-fluorophenyl)sulfonyl-N-({3-[4-(trifluoro-methyl)phenoxy]phenyl}methyl)azetidine-2-carboxamide]	160 nM
O=C(NCc1cccc(Oc2ccc(C(F)(F)F)cc2)c1)[C@@H]1CCCN1S(=O)(=O)c1ccc(Cl)cc1 [Example 38, (2S)-1-(4-chlorophenyl)sulfonyl-N-({3-[4-(trifluoro-methyl)phenoxy]phenyl}methyl)pyrrolidine-2-carboxamide]	76 nM
O=C(NCc1ccnc(Oc2ccc(C(F)(F)F)cc2)c1)[C@@H]1CCCN1S(=O)(=O)c1ccc(Cl)s1 [Example 39, (2S)-1-(5-chlorothiophene-2-sulfonyl)-N-({2-[4-(trifluoro-methyl)phenoxy]-4-pyridyl}methyl)pyrrolidine-2-carboxamide]	64 nM
O=C(NCc1cc(Oc2ccc(C(F)(F)F)cc2)ccn1)[C@@H]1CCCN1S(=O)(=O)c1ccc(Cl)s1 [Example 40, (2S)-1-(5-chlorothiophene-2-sulfonyl)-N-({4-[4-(trifluoro-methyl)phenoxy]-2-pyridyl}methyl)pyrrolidine-2-carboxamide]	66 nM
O=C(NCc1ccc(COc2ccccc2)cc1)[C@@H]1CCCN1S(=O)(=O)c1ccc(Cl)s1 [Example 41, (2S)-1-(5-chlorothiophene-2-sulfonyl)-N-{[4-(phenoxymethyl)phenyl]methyl}pyrrolidine-2-carboxamide]	310 nM
O=C(NCc1ccc(COc2ccc(C(F)(F)F)cc2)cc1)[C@@H]1CCCN1S(=O)(=O)c1ccc(Cl)s1 [Example 42, (2S)-1-(5-chlorothiophene-2-sulfonyl)-N-((4-{[4-(trifluoro-methyl)phenoxy]methyl}phenyl)methyl)pyrrolidine-2-carboxamide]	227 nM
O=C(NCc1ccc(COc2ccc(OC(F)(F)F)cc2)cc1)[C@@H]1CCCN1S(=O)(=O)c1ccc(Cl)s1 [Example 43, (2S)-1-(5-chlorothiophene-2-sulfonyl)-N-((4-{[4-(trifluoro-methoxy)phenoxy]methyl}phenyl)methyl)pyrrolidine-2-carboxamide]	380 nM
Cc1ccc(OCc2ccc(CNC(=O)[C@@H]3CCCN3S(=O)(=O)c3ccc(Cl)s3)cc2)cc1 [Example 44, (2S)-1-(5-chlorothiophene-2-sulfonyl)-N-({4-[(4-methyl-phenoxy)methyl]phenyl}methyl)pyrrolidine-2-carboxamide]	670 nM
COc1ccc(OCc2ccc(CNC(=O)[C@@H]3CCCN3S(=O)(=O)c3ccc(Cl)s3)cc2)cc1 [Example 45, (2S)-1-(5-chlorothiophene-2-sulfonyl)-N-({4-[(4-methoxy-phenoxy)methyl]phenyl}methyl)pyrrolidine-2-carboxamide]	670 nM
O=C(NCc1ccc(COc2ccc(F)cc2)cc1)[C@@H]1CCCN1S(=O)(=O)c1ccc(Cl)s1 [Example 46, (2S)-1-(5-chlorothiophene-2-sulfonyl)-N-({4-[(4-fluoro-phenoxy)methyl]phenyl}methyl)pyrrolidine-2-carboxamide]	390 nM
O=C(NCc1ccc(COc2ccc(Cl)cc2)cc1)[C@@H]1CCCN1S(=O)(=O)c1ccc(Cl)s1 [Example 47, (2S)-N-({4-[(4-chlorophenoxy)methyl]phenyl}methyl)-1-(5-chlorothiophene-2-sulfonyl)pyrrolidine-2-carboxamide]	620 nM
COC(=O)c1ccc(OCc2ccc(CNC(=O)[C@@H]3CCCN3S(=O)(=O)c3ccc(Cl)s3)cc2)cc1 [Example 48, methyl 4-((4-({[(2S)-1-(5-chlorothiophene-2-sulfonyl)pyrrolidine-2-carbonyl]amino}methyl)phenyl)methoxy)benzoate]	630 nM
N#Cc1ccc(OCc2ccc(CNC(=O)[C@@H]3CCCN3S(=O)(=O)c3ccc(Cl)s3)cc2)cc1 [Example 49, (2S)-1-(5-chlorothiophene-2-sulfonyl)-N-({4-[(4-cyano-phenoxy)methyl]phenyl}methyl)pyrrolidine-2-carboxamide]	2100 nM
O=C(NCc1ccc(COc2cccc(C(F)(F)F)c2)cc1)[C@@H]1CCCN1S(=O)(=O)c1ccc(Cl)s1 [Example 50]	242 nM
CC(C)(C)Oc1ccc(OCc2ccc(CNC(=O)[C@@H]3CCCN3S(=O)(=O)c3ccc(Cl)s3)cc2)cc1 [Example 51, (2S)-N-({4-[(4-tert-butoxyphenoxy)methyl]phenyl}methyl)-1-(5-chlorothiophene-2-sulfonyl)pyrrolidine-2-carboxamide]	630 nM
O=C(NCc1ccc(COc2cccc(OC(F)(F)F)c2)cc1)[C@@H]1CCCN1S(=O)(=O)c1ccc(Cl)s1 [Example 52, (2S)-1-(5-chlorothiophene-2-sulfonyl)-N-((4-{[3-(trifluoro-methoxy)phenoxy]methyl}phenyl)methyl)pyrrolidine-2-carboxamide]	210 nM
Cc1cccc(OCc2ccc(CNC(=O)[C@@H]3CCCN3S(=O)(=O)c3ccc(Cl)s3)cc2)c1 [Example 53, (2S)-1-(5-chlorothiophene-2-sulfonyl)-N-({4-[(3-methyl-phenoxy)methyl]phenyl}methyl)pyrrolidine-2-carboxamide]	500 nM
COc1cccc(OCc2ccc(CNC(=O)[C@@H]3CCCN3S(=O)(=O)c3ccc(Cl)s3)cc2)c1 [Example 54, (2S)-1-(5-chlorothiophene-2-sulfonyl)-N-({4-[(3-methoxy-phenoxy)methyl]phenyl}methyl)pyrrolidine-2-carboxamide]	550 nM
O=C(NCc1ccc(COc2cccc(F)c2)cc1)[C@@H]1CCCN1S(=O)(=O)c1ccc(Cl)s1 [Example 55, (2S)-1-(5-chlorothiophene-2-sulfonyl)-N-({4-[(3-fluoro-phenoxy)methyl]phenyl}methyl)pyrrolidine-2-carboxamide]	230 nM
O=C(NCc1ccc(COc2cccc(Cl)c2)cc1)[C@@H]1CCCN1S(=O)(=O)c1ccc(Cl)s1 [Example 56, (2S)-N-({4-[(3-chlorophenoxy)methyl]phenyl}methyl)-1-(5-chlorothiophene-2-sulfonyl)pyrrolidine-2-carboxamide]	250 nM
O=C(NCc1ccc(COc2cc(F)cc(F)c2)cc1)[C@@H]1CCCN1S(=O)(=O)c1ccc(Cl)s1 [Example 57, (2S)-1-(5-chlorothiophene-2-sulfonyl)-N-({4-[(3,5-difluoro-phenoxy)methyl]phenyl}methyl)pyrrolidine-2-carboxamide]	310 nM
COC(=O)c1cccc(OCc2ccc(CNC(=O)[C@@H]3CCCN3S(=O)(=O)c3ccc(Cl)s3)cc2)c1 [Example 58, methyl 3-((4-({[(2S)-1-(5-chlorothiophene-2-sulfonyl)pyrrolidine-2-carbonyl]amino}methyl)phenyl)methoxy)benzoate]	310 nM
CN(C)c1cccc(OCc2ccc(CNC(=O)[C@@H]3CCCN3S(=O)(=O)c3ccc(Cl)s3)cc2)c1 [Example 59, (2S)-1-(5-chlorothiophene-2-sulfonyl)-N-((4-{[3-(dimethyl-amino)phenoxy]methyl}phenyl)methyl)pyrrolidine-2-carboxamide]	838 nM
O=C(NCc1ccc(COc2ccccc2C(F)(F)F)cc1)[C@@H]1CCCN1S(=O)(=O)c1ccc(Cl)s1 [Example 60, (2S)-1-(5-chlorothiophene-2-sulfonyl)-N-((4-{[2-(trifluoro-methyl)phenoxy]methyl}phenyl)methyl)pyrrolidine-2-carboxamide]	420 nM

From patent US20150284375A1 (AJINOMOTO CO., INC., priority 2012, published 2015)
